Test results: patent EP4741379A1, “CLASS OF PROGRAMMED CELL DEATH INHIBITORS, PREPARATION METHOD THEREFOR AND USE THEREOF” (SHANGHAI INSTITUTE OF ORGANIC CHEMISTRY, CHINESE ACADEMY OF …, priority 2023, dated 2025)
Read-outs that look alike come from different tables or passages of the source.

Assays:
L929 cells = assay: TNF-induced programmed necrosis of L929 cells (Cell Titer-Glo viability); assay type: cell-based, mouse; details: Mus musculus
Protocol: (§1) The biological test protocol is adopted to test effects of the compound on TNF-induced programmed necrosis of FADD (Fas-associated death domain)-deficient Jurkat cells and L929 cells.
(§2) Two different stimulation methods were used: treating with tumor necrosis factor (TNFα) alone, or treating with TNFα in combination of mitochondrial-derived cysteine-aspartate activator (SMAC) SM164. Cell viability was determined by measuring chemiluminescence values, thereby assessing the bioactivity of the compounds in inhibiting programmed cell necrosis.
(§3) Method: FADD-deficient Jurkat cells: FADD-deficient Jurkat cells (human peripheral blood leukemia T cell line) were cultured in vitro. After reaching logarithmic growth phase, cells were collected and centrifuged at 1000 rpm for 5 minutes. A supernatant was discarded. A cell concentration was adjusted to 2.5×10^5/mL, and cells were seeded into a 384-well plate at 40 µL per well. In the corresponding wells, 5 µL of SM164 (50 nM) and compounds diluted with cell culture medium were added. After pre-treatment at 37°C for 1 hour, 5 µL of TNFα (50 ng/mL) diluted with cell culture medium was added to each well as a stimulation group, while 5 µL of culture medium was added as a control group. After the plate was incubated in a cell culture incubator (37°C, 5% CO2) for 14 hours, 15 µL of Cell Titer-Glo solution was added to each well. Then, the plate was incubated at room temperature for 30 minutes. Luminescence was measured to assess intracellular ATP levels. Cell viability was set at 100% for unstimulated DMSO control wells. […] The plate was placed in a cell culture incubator (37°C, 5% CO2) and cultured for 12 hours. In the corresponding wells, 5 µL of SM164 (500 nM) and compounds diluted with cell culture medium were added. After pre-treatment at 37°C for 1 hour, 5 µL of TNFα (500 ng/mL) diluted with cell culture medium was added to the wells as a stimulation group, while 5 µL of culture medium was added as a control group. After the plate was incubated in the cell incubator (37°C, 5% CO2) for 14 hours, 15 µL of Cell Titer-Glo solution was added to each well. Then, the plate was incubated at room temperature for 30 minutes, and luminescence was measured to assess intracellular ATP levels. Cell viability was set at 100% for unstimulated DMSO control wells. EC50 values of the compounds were calculated using Prism GraphPad statistical software.

[1] = test system: FADD-deficient Jurkat cells; assay: TNF-induced programmed necrosis of FADD-deficient Jurkat cells (Cell Titer-Glo viability); assay type: cell-based, human; details: for EC50: Homo sapiens, Jurkat; for programmed necroptosis inhibitory activity compared to SAR443122: TNFα alone or TNFα + SM164, human derived FADD-deficient Jurkat cells
Protocol: as §1, §2, §3

[2] = L929, stimulation with TNFα + SM164, read-out: EC50 (nM) L929 cells (mouse-derived) TNFα+ SM164
[3] = L929, stimulation with TNFα alone, read-out: EC50 (nM) L929 cells (mouse-derived) TNFα
[4] = stimulation with TNFα + SM164, read-out: EC50 (nM) FADD^-/- Jurkat cells (human-derived) TNFα+ SM164
[5] = stimulation with TNFα alone, read-out: EC50 (nM) FADD^-/- Jurkat cells (human-derived) TNFα
[6] = L929, read-out: EC50 (nM) L929 cells (mouse-derived) TNFα
[7] = read-out: EC50 (nM) FADD^-/- Jurkat cells (human-derived) TNFα

SMILES	EC50 (L929 cells; [2])	EC50 (L929 cells; [3])	EC50 [1, 4]	EC50 [1, 5]	programmed necroptosis inhibitory activity compared to SAR443122 [1]	EC50 (L929 cells; [6])	EC50 [1, 7]
C[C@H](NC(=O)c1nnn(C)c1Cc1ccccc1)c1ccc(C#Cc2csc(N(C)C)n2)cc1 [IRCBC-106]	0.3 nM	0.139 nM	0.256 nM	0.004 nM			
Cn1nnc(C(=O)NCc2ccc(C#Cc3ccccn3)nc2)c1Cc1ccccc1 [IRCBC-057]	35.5 nM	12.6 nM	3.9 nM	0.537 nM			
C[C@H](NC(=O)c1nnn(C)c1Cc1ccccc1)c1ccc(C#Cc2cnc(N(C)C)nc2)cc1 [IRCBC-119]	70.9 nM	20.9 nM	5.79 nM	0.164 nM			
CN1C(=O)[C@@H](NC(=O)c2n[nH]c(Cc3ccccc3)n2)COc2ccccc21 [GSK2982772, reference compound]	> 1000 nM	> 1000 nM	4 nM	0.7 nM			
C[C@H](NC(=O)c1nnn(C)c1Cc1ccccc1)c1ccc(C#Cc2ccncc2)cc1 [QY-18-27]	0.06 nM	0.04 nM	0.01 nM	< 0.01 nM	stronger		
C[C@H](NC(=O)c1nnn(C)c1Cc1ccccc1)c1ccc(C#Cc2ccnn2C)cc1 [IRCBC-003]						1.11 nM	0.095 nM
C[C@H](NC(=O)c1nnn(C)c1Cc1ccc(C#N)cc1)c1ccc(C#Cc2ccccn2)cc1 [IRCBC-071]	2.99 nM	0.914 nM	0.641 nM	0.006 nM			
COc1cccnc1C#Cc1ccc([C@H](C)NC(=O)c2nnn(C)c2Cc2ccccc2)cc1 [IRCBC-123]	1.05 nM	0.246 nM	0.004 nM				
C[C@H](NC(=O)c1nnn(C)c1Cc1ccccc1)c1ccc(C#Cc2cnc[nH]2)cc1 [IRCBC-005]	3.42 nM	2.09 nM	1.12 nM	0.019 nM			
C[C@H](NC(=O)c1nnn(C)c1Cc1ccccc1)c1ccc(C#Cc2cnn(C)c2)cc1 [QY-18-43]	0.08 nM	0.05 nM	0.06 nM	0.02 nM			
C[C@H](NC(=O)c1nnn(C)c1Cc1ccccc1)c1ccc(C#Cc2cnc3cccnn23)cc1 [IRCBC-131]	8.75 nM	2.05 nM	0.16 nM	0.003 nM			
C[C@H](NC(=O)c1nnn(C)c1Cc1ccccc1)c1ccc(C#Cc2ncco2)cc1 [IRCBC-008]						1.86 nM	0.055 nM
C[C@H](NC(=O)c1nnn(C)c1Cc1ccccc1)c1ccc(C#Cc2ccc(C(C)(C)O)cn2)cc1 [IRCBC-120]	1.74 nM	0.438 nM	0.079 nM	0.002 nM			
C[C@H](NC(=O)c1nnn(C)c1Cc1ccccc1F)c1ccc(C#Cc2ccccn2)cc1 [IRCBC-067]	0.887 nM	0.264 nM	0.261 nM	0.004 nM			
C[C@H](NC(=O)c1nnn(C)c1Cc1ccccc1)c1ccc(C#Cc2ncc(NC3CC3)cn2)cc1 [IRCBC-271]	0.00618 nM		0.0111 nM				
C[C@H](NC(=O)c1nnn(C)c1Cc1ccccc1)c1ccc(C#CC2CCOC2)cc1 (stereo partly shown) [IRCBC-010]	6.71 nM	3.27 nM	13.4 nM	0.481 nM			

SMILES	EC50 (L929 cells; [2])	EC50 (L929 cells; [3])	EC50 [1, 4]	EC50 [1, 5]	programmed necroptosis inhibitory activity compared to SAR443122 [1]	EC50 (L929 cells; [6])	EC50 [1, 7]
C[C@H](NC(=O)c1nnn(C)c1Cc1ccccc1)c1ccc(C#Cc2cnc(N(C)C)cn2)cc1 [IRCBC-098]	0.062 nM	0.011 nM	0.004 nM				
C[C@H](NC(=O)c1nnn(C)c1Cc1ccccc1)c1ccc(C#CC2CCOCC2)cc1 [QY-18-44]	0.3 nM	0.2 nM	0.3 nM	0.04 nM			
C[C@H](NC(=O)c1cnn(C)c1Cc1ccccc1)c1ccc(C#Cc2ccccn2)cc1 [QY-20-2]	0.5 nM	0.1 nM	0.3 nM	0.03 nM			
C[C@H](NC(=O)c1nnn(C)c1Cc1ccccc1)c1ccc(C#Cc2cccnc2)cc1 [QY-18-25]	1.2 nM	0.3 nM	0.02 nM	< 0.01 nM			
C[C@H](NC(=O)c1nnn(C)c1Cc1ccccc1)c1ccc(C#Cc2nccs2)cc1 [IRCBC-007]						0.631 nM	0.072 nM
C[C@H](NC(=O)c1nnn(C)c1Cc1ccccc1)c1ccc(C#Cc2ccc(N3CCCC3)cn2)cc1 [IRCBC-104]	0.12 nM	0.071 nM	0.002 nM				
C[C@H](NC(=O)c1nnn(C)c1Cc1ccc(F)cc1)c1ccc(C#Cc2ccccn2)cc1 [QY-20-53]	0.1 nM	0.03 nM	0.05 nM	< 0.01 nM	stronger		
C[C@H](NC(=O)c1nnn(C)c1Cc1ccccc1)c1ccc(C#Cc2cnn(C3CC3)c2)cc1 [IRCBC-041]						0.771 nM	0.004 nM
C[C@H](NC(=O)c1nnn(C)c1Cc1ccccc1)c1ccc(C#CC2CC2)cc1 [QY-18-47]	73 nM	1 nM	61 nM	0.7 nM			
C[C@H](NC(=O)c1nnn(C)c1Cc1ccccc1)c1ccc(C#Cc2ncccc2N(C)C)cc1 [IRCBC-124]	5.87 nM	1.93 nM	0.034 nM				
C[C@H](NC(=O)c1nnn(C)c1Cc1ccccc1)c1ccc(C#Cc2cccc(N(C)C)n2)cc1 [IRCBC-099]	0.734 nM	0.399 nM	3.46 nM	0.195 nM			
C[C@H](NC(=O)c1nnn(C)c1Cc1ccccc1)c1ccc(C#Cc2ccncc2Cl)cc1 [IRCBC-093]						0.374 nM	0.001 nM
C[C@H](NC(=O)c1nnn(C)c1Cc1ccccc1)c1ccc(C#Cc2ccc(C#N)cn2)cc1 [IRCBC-051]	4.53 nM	1.62 nM	0.845 nM	0.006 nM			
C[C@H](NC(=O)c1nnn(C)c1Cc1ccccc1)c1ccc(C#Cc2cc(N(C)C)ccn2)cc1 [IRCBC-125]	1.68 nM	0.445 nM	0.145 nM	0.01 nM			
CCN1CCN(c2ccc(C#Cc3ccc([C@H](C)NC(=O)c4nnn(C)c4Cc4ccccc4)cc3)nc2)CC1 [IRCBC-134]	0.005 nM	0.001 nM	0.002 nM				
C[C@H](NC(=O)c1nnn(C)c1Cc1ccccc1)c1ccc(C#Cc2ncccc2F)cc1 [IRCBC-122]	0.032 nM	0.026 nM	0.035 nM				
